Assay results as given in the NIST ThermoML archive (doi:10.1021/je400894j).
Numbers after ± are expanded uncertainties.

Assay: mn = molality of the nth substance listed, in mol/kg
Conditions: 101 kPa, Liquid, Falling or rolling sphere viscometry

Compound: O=C([O-])CC(O)(CC(=O)[O-])C(=O)[O-].[Na+].[Na+].[Na+] [trisodium citrate] + O
- viscosity (288.15 K, m1 = 0.2): 1.343 ± 0.032 mPa·s
- viscosity (288.15 K, m1 = 0.4): 1.661 ± 0.033 mPa·s
- viscosity (288.15 K, m1 = 0.6): 2.072 ± 0.034 mPa·s
- viscosity (288.15 K, m1 = 0.8): 2.633 ± 0.037 mPa·s
- viscosity (298.15 K, m1 = 0.2): 1.056 ± 0.031 mPa·s
- viscosity (298.15 K, m1 = 0.4): 1.296 ± 0.032 mPa·s
- viscosity (298.15 K, m1 = 0.6): 1.592 ± 0.033 mPa·s
- viscosity (298.15 K, m1 = 0.8): 2.002 ± 0.034 mPa·s
- viscosity (308.15 K, m1 = 0.2): 0.858 ± 0.031 mPa·s
- viscosity (308.15 K, m1 = 0.4): 1.047 ± 0.031 mPa·s
- viscosity (308.15 K, m1 = 0.6): 1.277 ± 0.032 mPa·s
- viscosity (308.15 K, m1 = 0.8): 1.581 ± 0.033 mPa·s
- viscosity (318.15 K, m1 = 0.2): 0.719 ± 0.031 mPa·s
- viscosity (318.15 K, m1 = 0.4): 0.868 ± 0.031 mPa·s
- viscosity (318.15 K, m1 = 0.6): 1.049 ± 0.031 mPa·s
- viscosity (318.15 K, m1 = 0.8): 1.287 ± 0.032 mPa·s
